Reference: patent US7135615B2, “Chromosome doubling method” (The Curators of the University of Missouri, priority 2001, dated 2006)
“And” between values parts separate entries of the source, which are not always exact repeats. Equal entries are not always repeated. Marks after values point to notes of the source that are not given here.

System: maize B55 haploid seedlings
Test: nitrous oxide gas treatment at 3–8 leaf stages, B55 haploids (Example 3)
Conditions: for Ear (open pollinated): No. of fertile sectors /ear / Ear (open pollinated): No. of kernels produced /ear / Ear (open pollinated): Plants with fertile sectors % / No. of tassel branch Average / Plant height (cm) Average / Tassel: No. of fertile anthers extruded/tassel / Tassel: No. of fertile sectors/tassel / Tassel: Plants with fertile sectors % / Ear (open pollinated): Plants with fertile sectors No. / Tassel: Plants with fertile sectors No. / No. of plants Survived: 600 kPa, 2 days
Description: Leaf stages were defined as follows, At the 3 leaf stage, there are three elongated leaves and the tip of the fourth leaf appears at the center of the leaf whorl. This stage is defined as V2 according to Ritchie et al. (1997). At the 8 leaf stage, there are 8 elongated leaves and the tip of the 9th and 10th leaves appear at the center of the leaf whorl (late V5 stage). At the 6 leaf stage, six elongated leaves are observable, and the tip of seventh leaf appears at the leaf whorl (late V4 or early V5 stage). Nine to sixteen haploid plants were treated at each stage using a large air tight iron chamber (FIG. 3). […] Moistened calcium hydroxide (50 g) wrapped in a paper towel was included to absorb carbon dioxide that is produced by the seedlings, as carbon dioxide at high concentration will injure the seedlings during the treatment. The soil of the pots was dried prior to treatment to prevent root injuries. […] The gas was introduced slowly into the chamber over a 10 minutes time frame.
After the treatment, seedlings were transplanted into larger pots, and grown in a greenhouse. A relatively cool temperature (below 25° C.) was maintained to permit the appropriate development of doubled sectors. At flowering, the ears were cross pollinated by an appropriate pollen source to reveal all the fertile sectors on the ears. On the treated plants, plant height (cm), tassel size (cm), number of tassel branches, ear length (cm), the number of fertile sectors on a tassel and an ear, the number of anthers on a tassel, and the number of kernels on an ear were recorded.
Analyses of variance and Duncan's Multiple Range Tests were performed to determine the effects of treatments on the plant height (cm), tassel size (cm), and ear length (cm). Chi square tests were used to determine the effects of treatments upon the proportion of plants that developed fertile tassel and ear sectors. The ratios of untreated plants with fertile sectors were used to estimate the significance of the ratio of treated plants with fertile sectors.
Nonparametric tests were performed to compare the distributions. The primary test was the Kruskal-Wallis test. In the initial tests, the null hypothesis considered was that the distributions would be the same for each treatment and control. If the null hypothesis was rejected (P<0.05), then pair wise comparisons of each treatment to the control using Dunn's method were conducted. The tassel branch number was low incidence count data and was analyzed using the same nonparametric tests mentioned above.

[N-]=[N+]=O [nitrous oxide gas, nitrous oxide]
Ear (open pollinated): No. of fertile sectors /ear (3 leaf stage): 1.1 /ear
Ear (open pollinated): No. of kernels produced /ear (3 leaf stage): 49.0* /ear
Ear (open pollinated): Plants with fertile sectors % (3 leaf stage): 67%
No. of tassel branch Average (3 leaf stage): 18.8*
Plant height (cm) Average (3 leaf stage): 183 cm·days
Tassel: No. of fertile anthers extruded/tassel (3 leaf stage): 35.6 /tassel
Tassel: No. of fertile sectors/tassel (3 leaf stage): 1.1 /tassel
Tassel: Plants with fertile sectors % (3 leaf stage): 67%
Ear (open pollinated): Plants with fertile sectors No. (3 leaf stage, 9 examined): 6
Tassel: Plants with fertile sectors No. (3 leaf stage, 9 examined): 6
No. of plants Survived (3 leaf stage, 10 treated): 9
number of anthers /tassel, span over treatments (3–8 leaf stage treatments): 35.6–521 /tassel
number of kernels on the ears, span over treatments (3–8 leaf stage treatments): 10.9–49.0
Ear (open pollinated): No. of fertile sectors /ear (4 leaf stage): 2.8** /ear
Ear (open pollinated): No. of kernels produced /ear (4 leaf stage): 21.5** /ear
Ear (open pollinated): Plants with fertile sectors % (4 leaf stage): 100** %
No. of tassel branch Average (4 leaf stage): 20.1
Plant height (cm) Average (4 leaf stage): 168 bc cm
Tassel: No. of fertile anthers extruded/tassel (4 leaf stage): 111.5* /tassel
Tassel: No. of fertile sectors/tassel (4 leaf stage): 1.5 /tassel
Tassel: Plants with fertile sectors % (4 leaf stage): 64%
Ear (open pollinated): Plants with fertile sectors No. (4 leaf stage, 11 examined): 11
Tassel: Plants with fertile sectors No. (4 leaf stage, 11 examined): 7
No. of plants Survived (4 leaf stage, 11 treated): 11
Ear (open pollinated): No. of fertile sectors /ear (5 leaf stage): 1.6 /ear
Ear (open pollinated): No. of kernels produced /ear (5 leaf stage): 40.4** /ear
Ear (open pollinated): Plants with fertile sectors % (5 leaf stage): 89* %
No. of tassel branch Average (5 leaf stage): 13.9**
Plant height (cm) Average (5 leaf stage): 170 c cm
Tassel: No. of fertile anthers extruded/tassel (5 leaf stage): 139.6** /tassel
Tassel: No. of fertile sectors/tassel (5 leaf stage): 3.0* /tassel
Tassel: Plants with fertile sectors % (5 leaf stage): 100** %
Ear (open pollinated): Plants with fertile sectors No. (5 leaf stage, 9 examined): 8
Tassel: Plants with fertile sectors No. (5 leaf stage, 9 examined): 9
No. of plants Survived (5 leaf stage, 9 treated): 9
frequency of fertile sectors on the tassels (5–7 leaf stages): 100%
number of anthers on the tassels (5–7 leaf stages): 140–521 /tassel
number of kernels on the ears (5–7 leaf stages): 40.4–47.5 /ear
Ear (open pollinated): No. of fertile sectors /ear (6 leaf stage): 1.7 /ear
Ear (open pollinated): No. of kernels produced /ear (6 leaf stage): 45.5** /ear
Ear (open pollinated): Plants with fertile sectors % (6 leaf stage): 90* %
No. of tassel branch Average (6 leaf stage): 14.5**
Plant height (cm) Average (6 leaf stage): 165 bc cm
Tassel: No. of fertile anthers extruded/tassel (6 leaf stage): 521 /tassel and 521.1** /tassel
Tassel: No. of fertile sectors/tassel (6 leaf stage): 5.7** /tassel
Tassel: Plants with fertile sectors % (6 leaf stage): 100** %
Ear (open pollinated): Plants with fertile sectors No. (6 leaf stage, 10 examined): 9
Tassel: Plants with fertile sectors No. (6 leaf stage, 10 examined): 10
No. of plants Survived (6 leaf stage, 10 treated): 10
Ear (open pollinated): No. of fertile sectors /ear (7 leaf stage): 1.8 /ear
Ear (open pollinated): No. of kernels produced /ear (7 leaf stage): 47.5** /ear
Ear (open pollinated): Plants with fertile sectors % (7 leaf stage): 82%
No. of tassel branch Average (7 leaf stage): 14.3**
Plant height (cm) Average (7 leaf stage): 168 bc cm
Tassel: No. of fertile anthers extruded/tassel (7 leaf stage): 267.3** /tassel
Tassel: No. of fertile sectors/tassel (7 leaf stage): 9.6** /tassel
Tassel: Plants with fertile sectors % (7 leaf stage): 100** %
Ear (open pollinated): Plants with fertile sectors No. (7 leaf stage, 11 examined): 9
Tassel: Plants with fertile sectors No. (7 leaf stage, 11 examined): 11
No. of plants Survived (7 leaf stage, 11 treated): 11
Ear (open pollinated): No. of fertile sectors /ear (8 leaf stage): 2.3** /ear
Ear (open pollinated): No. of kernels produced /ear (8 leaf stage): 10.9* /ear
Ear (open pollinated): Plants with fertile sectors % (8 leaf stage): 92** %
No. of tassel branch Average (8 leaf stage): 20.4*
Plant height (cm) Average (8 leaf stage): 137 a cm
Tassel: No. of fertile anthers extruded/tassel (8 leaf stage): 283.2** /tassel
Tassel: No. of fertile sectors/tassel (8 leaf stage): >18.6** /tassel
Tassel: Plants with fertile sectors % (8 leaf stage): 100** %
Ear (open pollinated): Plants with fertile sectors No. (8 leaf stage, 12 examined): 11
Tassel: Plants with fertile sectors No. (8 leaf stage, 12 examined): 12
No. of plants Survived (8 leaf stage, 12 treated): 12
